One data set deals with activated B-RAF (Homo sapiens, UniProt P15056). In words: Surface plasmon resonance binding (Biacore 1S+).
A further data set deals with HEC-1-B. In words: Cell viability assay (ATPlite). The format is cell-based. The note with it: Homo sapiens; HEC-1-B cell line, 72 hours incubation. Here is the method: (§1) Intracellular ATP content was used as an indirect readout of cell number using the ATPlite 1Step bioluminescence assay (Revvity, Groningen, the Netherlands). Cells were seeded in 384-well plates at an optimized density to ensure unrestricted growth and maximal signal at the end of the experiment. After 24 hours of incubation, the starting cell number was determined by adding ATPlite to each well of a control plate and recording luminescence on an Envision multimode reader (Revvity, Waltham, MA, USA) ([4]). Compounds were diluted in DMSO in √10-fold steps from 10 mmol/L stocks to obtain 9-point dilution series. After further 31.6-fold dilution in 20 mmol/L HEPES (pH 7.4), the dilution series were added in duplicate to the cells in the 384-well plates to determine the effect of the compounds on cell viability. Vehicle-treated controls were included to determine maximal cell proliferation. The final DMSO concentration was 0.4% (v/v) in all wells. After incubation for an additional 72 hours, the ATP content was measured in each well using ATPlite. The luminescent signal in inhibitor-treated wells was normalized to vehicle-treated control wells to determine the percentage viability at each concentration. Cell doublings were determined by relating the cell number of vehicle-treated controls to the starting cell number for each cell line. The viability assay of a cell line was repeated when the cell doubling deviated > 2-fold from the historic doubling as determined by multiple independent experiments. The quality of the complete assay was determined by a parallel test with doxorubicin on two cell lines. IC50 values were calculated by fitting a four-parameter logistic model to the percentage viability values using IDBS XLfit5 (IDBS, Guildford, United Kingdom). All curves were visually inspected and submitted to an F-test as implemented in IDBS XLfit5. Curves with an F-value above 1.5 were invalidated and IC50 values were maximized at the highest concentration.

A further data set relates to HEC-6. Kind of data set: Cell viability assay (ATPlite). To be noted: Homo sapiens; HEC-6 cell line, 72 hours incubation. The format is cell-based. Here is the method:
as §1

Data set [1] relates to panel of 160 human cancer cell lines. Kind of data set: Cancer cell panel profiling in cell viability assays (ATPlite). The class given is cell-based. An excerpt:
A panel of 160 cancer cell lines was used in this study. […]. Cell lines were purchased from the American Type Culture Collection (ATCC) (Manassas, VA, USA), the German Collection of Microorganisms and Cell Cultures (DSMZ) (Braunschweig, Germany), the RIKEN BioResource Research Center (Tsukuba, Ibaraki, Japan) or the Japanese Collection of Research Bioresources (JCRB) (Ibaraki City, Osaka, Japan). All cell lines were propagated in the cell culture media as indicated in Supplementary Table S1 . Cell viability assays were carried out within ten passages of the original vials. The authenticity of the ATCC and DSMZ cell lines has been confirmed by short tandem repeat analysis at both institutions. […]
Intracellular ATP content was used as an indirect readout of cell number using the ATPlite 1Step bioluminescence assay (Revvity, Groningen, the Netherlands). […] After 24 hours of incubation, the starting cell number was determined by adding ATPlite to each well of a control plate and recording luminescence on an Envision multimode reader (Revvity, Waltham, MA, USA) ([4]). […] After incubation for an additional 72 hours, the ATP content was measured in each well using ATPlite. […] Cell doublings were determined by relating the cell number of vehicle-treated controls to the starting cell number for each cell line. […]

Data set [2] has as its target biotinylated, inactive MEK1 (Homo sapiens, UniProt Q02750). In words: biochemical.
Another data set concerns the target T1, MEK2 (Homo sapiens, UniProt P36507).
T1 construct: purchased Carna Biosciences, Inc. 07-42
In words: Kinase enzyme activity assay (ELISA, in-house). The class given is biochemical.

In another data set the test system is KG-1. In words: Cell viability assay (ATPlite). The format is cell-based, human. The note with it: KG-1 cell line, 72 hours incubation. The method, then:
as §1

The test system of another data set is KATO III. In words: Cell viability assay (ATPlite). The format is cell-based, human. The note with it: KATO III cell line, 72 hours incubation. Here is the method: as §1
A further data set relates to RT-4. Kind of data set: Cell viability assay (ATPlite). To be noted: RT-4 cell line, 72 hours incubation. The class given is cell-based, human. The method, then:
as §1

The subject of a further data set is AN3-CA. Kind of data set: Cell viability assay (ATPlite). The format is cell-based, human. To be noted: AN3-CA cell line, 72 hours incubation. The method, then:
as §1

For the next data set, the target named is MLK1 (Homo sapiens, UniProt P80192). Kind of data set: Radiometric kinase assay with 32P-labeled ATP (Eurofins).
Sequence of MLK1 (P80192 whole entry): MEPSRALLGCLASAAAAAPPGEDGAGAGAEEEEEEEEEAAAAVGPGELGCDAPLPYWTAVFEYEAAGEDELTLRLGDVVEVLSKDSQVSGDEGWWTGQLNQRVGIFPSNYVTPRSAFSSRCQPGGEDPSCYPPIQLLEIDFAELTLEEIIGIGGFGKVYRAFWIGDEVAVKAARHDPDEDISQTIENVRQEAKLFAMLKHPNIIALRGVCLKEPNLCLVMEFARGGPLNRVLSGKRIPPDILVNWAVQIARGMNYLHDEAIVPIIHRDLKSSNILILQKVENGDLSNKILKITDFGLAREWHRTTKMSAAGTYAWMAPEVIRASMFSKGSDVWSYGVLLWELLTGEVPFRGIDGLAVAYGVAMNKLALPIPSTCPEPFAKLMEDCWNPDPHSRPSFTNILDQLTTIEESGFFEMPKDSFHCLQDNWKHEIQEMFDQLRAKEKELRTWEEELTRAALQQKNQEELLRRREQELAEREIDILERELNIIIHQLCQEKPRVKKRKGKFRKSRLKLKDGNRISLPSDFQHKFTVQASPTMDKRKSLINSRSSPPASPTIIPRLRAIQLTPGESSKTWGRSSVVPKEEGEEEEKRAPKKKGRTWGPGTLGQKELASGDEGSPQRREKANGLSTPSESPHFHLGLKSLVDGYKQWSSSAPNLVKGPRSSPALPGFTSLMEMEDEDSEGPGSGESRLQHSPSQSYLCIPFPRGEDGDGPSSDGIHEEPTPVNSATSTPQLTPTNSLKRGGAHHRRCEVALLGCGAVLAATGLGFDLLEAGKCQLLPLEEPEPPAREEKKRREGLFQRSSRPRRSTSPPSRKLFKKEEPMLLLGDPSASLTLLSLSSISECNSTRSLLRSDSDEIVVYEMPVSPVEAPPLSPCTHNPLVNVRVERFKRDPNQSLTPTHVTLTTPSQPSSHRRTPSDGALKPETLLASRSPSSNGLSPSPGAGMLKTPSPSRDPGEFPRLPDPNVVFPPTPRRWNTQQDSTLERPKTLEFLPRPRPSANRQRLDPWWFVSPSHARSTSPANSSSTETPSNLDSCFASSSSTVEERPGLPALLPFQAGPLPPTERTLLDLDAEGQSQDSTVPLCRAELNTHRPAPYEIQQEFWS

One molecule from article PMC12586182 (Frontiers in Oncology, 2025) can be followed below.

pIC50, pKd: −log10 of the molar value. “Also recorded” adds a separate entry of the source. Like-named read-outs stand apart in the source and are kept apart here.

Sequence of activated B-RAF (P15056 whole entry): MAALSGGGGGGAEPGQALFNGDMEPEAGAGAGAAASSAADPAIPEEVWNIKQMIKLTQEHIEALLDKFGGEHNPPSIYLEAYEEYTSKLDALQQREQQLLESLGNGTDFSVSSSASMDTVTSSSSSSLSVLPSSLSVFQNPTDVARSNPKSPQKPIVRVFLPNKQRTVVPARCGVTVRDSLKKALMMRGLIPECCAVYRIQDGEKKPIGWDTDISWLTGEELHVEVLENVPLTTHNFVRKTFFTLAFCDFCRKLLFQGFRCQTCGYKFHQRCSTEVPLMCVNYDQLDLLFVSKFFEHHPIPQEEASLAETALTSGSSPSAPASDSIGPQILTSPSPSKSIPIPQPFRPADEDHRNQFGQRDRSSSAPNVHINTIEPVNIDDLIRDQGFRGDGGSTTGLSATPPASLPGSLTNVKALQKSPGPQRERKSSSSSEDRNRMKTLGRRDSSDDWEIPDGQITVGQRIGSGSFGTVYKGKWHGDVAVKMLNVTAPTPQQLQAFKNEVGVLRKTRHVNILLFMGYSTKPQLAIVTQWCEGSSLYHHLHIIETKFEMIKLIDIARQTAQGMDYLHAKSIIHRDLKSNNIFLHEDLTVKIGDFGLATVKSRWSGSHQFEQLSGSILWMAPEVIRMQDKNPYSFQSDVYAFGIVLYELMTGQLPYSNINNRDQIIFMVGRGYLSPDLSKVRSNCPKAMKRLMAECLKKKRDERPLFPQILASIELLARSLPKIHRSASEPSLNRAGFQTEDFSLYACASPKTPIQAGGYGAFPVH
T1 sequence (P36507 whole entry): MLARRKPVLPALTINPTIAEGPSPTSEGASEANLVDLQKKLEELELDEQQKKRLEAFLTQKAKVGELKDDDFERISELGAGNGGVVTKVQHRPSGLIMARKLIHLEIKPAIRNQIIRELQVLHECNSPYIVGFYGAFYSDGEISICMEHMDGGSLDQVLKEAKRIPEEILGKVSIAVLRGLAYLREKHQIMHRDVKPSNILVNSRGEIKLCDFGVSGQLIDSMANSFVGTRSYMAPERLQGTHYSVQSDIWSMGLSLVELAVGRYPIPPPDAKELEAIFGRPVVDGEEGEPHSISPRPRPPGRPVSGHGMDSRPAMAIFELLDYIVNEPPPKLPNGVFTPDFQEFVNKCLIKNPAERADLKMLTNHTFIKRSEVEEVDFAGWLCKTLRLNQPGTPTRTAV
Sequence of biotinylated, inactive MEK1 (Q02750 whole entry): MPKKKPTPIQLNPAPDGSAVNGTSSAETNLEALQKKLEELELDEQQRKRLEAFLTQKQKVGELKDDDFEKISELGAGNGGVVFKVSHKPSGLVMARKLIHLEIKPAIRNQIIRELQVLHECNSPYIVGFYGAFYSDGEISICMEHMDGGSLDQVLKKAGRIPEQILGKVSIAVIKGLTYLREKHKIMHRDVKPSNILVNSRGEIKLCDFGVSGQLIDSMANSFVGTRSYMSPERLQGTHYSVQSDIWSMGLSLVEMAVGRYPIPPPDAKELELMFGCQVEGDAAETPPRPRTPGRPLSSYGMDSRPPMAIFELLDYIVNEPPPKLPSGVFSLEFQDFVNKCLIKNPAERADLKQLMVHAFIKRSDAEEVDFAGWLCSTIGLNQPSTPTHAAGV
Experimental for MLK1: Inhibition of MLK1 and B-RAF at K M,ATP was determined in a radiometric assay using ^32P-labeled ATP at Eurofins Cerep SA (Celle-Lévescault, France). Interaction with SIK3 was assessed in a competition binding assay at Eurofins DiscoverX LLC (San Diego, CA, USA).

For the molecule `O=C(c1ccc(Oc2ccccc2)cc1Cl)c1c[nH]c2ncnc(N[C@@H]3CC[C@@H](CO)OC3)c12` [nemtabrutinib], on activated B-RAF (SPR K D B-RAF versus K D MEK1), the “difference in affinity, MEK1 versus B-RAF” value turned out to be 120 fold. Also, the “log (kd)” value at activated B-RAF (SPR, B-RAF) is given as -1.26. Moreover, the “log(ka)” value on activated B-RAF (SPR, B-RAF) is on record as 4.66. In addition, the t1/2 on activated B-RAF (SPR, B-RAF) amounted to 12.5 s. Also, the pIC50 was 6.42 in the data set on HEC-1-B; 4.65 in the data set on HEC-6; 6.31 on MEK2 (1 mmol/L ATP, read-out: IC50, MEK2); 8.02 against MEK2 (IC50, MEK2); 5.85 in the data set with KG-1 (Homo sapiens, KG-1, 72 h); 5.85 in the data set with KG-1. Moreover, the pIC50 in the data set with KATO III (Homo sapiens, KATO III, 72 h) was 5.96; in the data set with KATO III, 5.95; in the data set with RT-4 (Homo sapiens, RT-4, 72 h), 5.77; in the data set with RT-4, 5.77; in the data set with AN3-CA it was 5.92; in the data set on AN3-CA (Homo sapiens, AN3-CA, 72 h), 5.96. At MLK1, the pIC50 is 5.31. The “Extent of inhibition of viability” value in [1] (SU-DHL-6 and REC-1 cells, dose-response curves) is “almost complete inhibition of viability”. Further, the “Sensitivity of BRAF-mutant versus BRAF wild-type cell lines” value in data set [1] (average over cell panel, ANOVA) was “three times higher; also recorded: three times more sensitive”. For the same molecule, the negative logarithm of the Kd (pKd) in data set [2] is 8.00. Also, the “Inhibition of MLK1” value at MLK1 was “did not inhibit”.
